Data taken from patent publication US9751919B2, “Antimicrobial compositions comprising a hyaluronic acid binding peptide and a β-lactam antibiotic” (priority 2012, dated 2017).
“And” between values parts separate entries of the source, which are not always exact repeats. Identical values can stand only once. Marks after values point to notes of the source that are not given here.

Key:
VRSA = assay: MIC (CLSI broth dilution), agent alone; type: cell-based, Staphylococcus aureus; set-up: unit not given beside the values
Protocol: (§1) VISA (strains 92, 95 and 96), VRSA (strains 105 and 106) and E. coli (strain 69717) isolates were also tested. One MSSA was used as a control. All MICs were assessed using CLSI guidelines. Also assessed was the activity of cefazolin, ceftriazone, meropenem, and a piperacillin/tazobactam combination antibiotic. Minimum inhibitory concentration (MIC) is the lowest concentration of an antimicrobial that will inhibit the visible growth of a microorganism after incubation.
(§2) Antimicrobial Susceptibility Testing: A custom designed panel of antimicrobials was created. The panel included: PEP35, penicillin, piperacillin/tazobactam, cefazolin, ceftriaxone, meropenem, clarithromycin, clindamycin, gentamicin, amikacin, vancomycin, ciprofloxacin, levofloxacin, moxifloxacin, linezolid, trimethoprim/sulfamethoxazole and doxycycline. These agents were obtained as laboratory grade powders from their respective manufacturers. Stock solutions were prepared and dilutions made as described by the Clinical Laboratory Standards Institute (2005 CLSI). Following two subcultures from frozen stock the MICs of the antimicrobial agents for the isolates were determined by the CLSI 2005 approved broth macrodilution method. Briefly, test tubes containing doubling antibiotic dilutions (2 ml per tube) of cation adjusted Mueller-Hinton broth (eg. for Enterobacteriaceae) with or without lysed horse blood (2-5% V/V) [eg. for S. pneumoniae] were inoculated to achieve a final concentration of approximately 5×10^5 CFU/ml and incubated in ambient air for 24 hours prior to reading. Colony counts were performed periodically to confirm inocula. Quality control was performed every two weeks using a variety of ATCC QC organisms including; S. aureus 29213, E. faecalis 29212, E. coli 25922 and P. aeruginosa 27853. For all antimicrobials as well as PEP35, CLSI criteria were used.
(§3) One MSSA was used as a control. All MICs were assessed using CLSI guidelines.

E. faecalis = assay: Checkerboard assay (FIC index); type: cell-based, Enterococcus faecalis; conditions: antibiotic combined with PEP35
Protocol: (§4) The checkerboard assays were carried out as described by Eliopoulos and Moellering (Chapter 9) in Antibiotic in Laboratory Medicine, Lorian Ed. 1996 as well as Bonapace et al. Diagnostic Microbiology and Infectious Diseases 2002; 44:363-366 and Bonapace et al. Diagnostic Microbiology and Infectious Diseases 2000; 38:43-50. In brief, checkerboard assays were performed in 96 well microtitre trays using an 8-by-8 well configuration. […] 96-well custom designed microtitre plates contained 100 ul/well of cation adjusted Mueller-Hinton broth (eg. for Enterobacteriaceae) with or without lysed horse blood (2-5% V/V) [eg. for S. pneumoniae] and were inoculated to achieve a final concentration of approximately 5×10^5 CFU/ml and incubated in ambient air for 24 hours prior to reading. Colony counts were performed periodically to confirm inocula. Quality control was performed every two weeks using a variety of ATCC QC organisms including; S. pneumoniae 49619, S. aureus 29213, E. faecalis 29212, E. coli 25922 and P. aeruginosa 27853. For all antimicrobials as well as PEP35, CLSI criteria was used.
(§5) The fractional inhibitory concentration index (FIC index) was used to interpret synergy, antagonism or additivity/indifference. FIC index=FIC of drug A+FIC of drug B where:
(§6) The FIC of drug A and drug B is calculated as follows, FIC drug A=MIC of drug A in combination/MIC of drug A alone and FIC of drug B=MIC of drug B in combination/MIC of drug B alone. Synergy is defined as FIC index ≦0.5, additivity/indifference FIC >0.5-4 and antagonism FIC index >4.
(§7) Antimicrobials used included PEP35, cefazolin, ceftriaxone, vancomycin, linezolid, tigecycline and daptomycin versus Gram-positive cocci and PEP35, gentamicin, levofloxacin, piperacillin/tazobactam, meropenem and colistin (Polymyxin E) versus Gram-negative bacilli. These agents were obtained as laboratory grade powders from their respective manufacturers. Stock solutions were prepared and dilutions made as described by the Clinical Laboratory Standards Institute (2005 CLSI).
(§8) Organisms included Gram-positive cocci (2 strains of each): Methicillin-susceptible Staphylococcus aureus (MSSA), community-associated (CA) and healthcare-associated (HA) methicillin-resistant Staphylococcus aureus (MRSA), vancomycin-intermediate Staphylococcus aureus (VISA), vancomycin-resistant Staphylococcus aureus (VRSA), methicillin-resistant Staphylococcus epidermidis (MRSE), Streptococcus pyogenes, Streptococcus agalactiae, Streptococcus pneumoniae, Enterococcus faecalis, Enterococcus faecium and vancomycin-resistant enterococcus (VRE). Gram-negative bacilli tested (2 strains of each) included: E. coli, Pseudomonas aeruginosa, Klebsiella pneumoniae, K. oxytoca, Enterobacter cloacae, P. mirabilis and Stenotrophomonas maltophilia. MIC testing, following two subcultures from frozen stock were determined by the CLSI 2005 approved broth microdilution method.

S. pneumoniae = assay: Checkerboard assay (FIC index); type: cell-based, Streptococcus pneumoniae; conditions: antibiotic combined with PEP35;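 further: each agent diluted from 0.03 to 4 times its MIC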
Protocol: as §4, §5, §6, §7, §8

VRE = assay: Checkerboard assay (FIC index); type: cell-based, Enterococcus faecium; conditions: antibiotic combined with PEP35
Protocol: as §4, §5, §6, §7, §8

E. Faecium = assay: Checkerboard assay (FIC index); type: cell-based, Enterococcus faecium; conditions: antibiotic combined with PEP35
Protocol: as §4, §5, §6, §7, §8

S. agalactiae = assay: Checkerboard assay (FIC index); type: cell-based, Streptococcus agalactiae; conditions: antibiotic combined with PEP35
Protocol: as §4, §5, §6, §7, §8

VISA = assay: MIC (CLSI broth dilution), agent alone; type: cell-based, Staphylococcus aureus; set-up: unit: µg/mL
Protocol: as §1, §2, §3

S. pyogenes = assay: Checkerboard assay (FIC index); type: cell-based, Streptococcus pyogenes; conditions: antibiotic combined with PEP35
Protocol: as §4, §5, §6, §7, §8

E. coli = assay: MIC (CLSI broth dilution), agent alone; type: cell-based, Escherichia coli; conditions: for MIC: agent alone
Protocol: as §1, §2
One MS SA and ATCC reference strains were used as controls. All MICs were assessed using CLSI guidelines.

[1] = S. pneumoniae-Pen I 72302 (MHB)
[2] = S. pneumoniae-Pen I 78663 (MHB)
[3] = S. pneumoniae-Pen R 76065 (MHB)
[4] = S. pneumoniae-Pen R 78519 (MHB)
[5] = S. pneumoniae-Pen S 70400 (MHB)
[6] = S. pneumoniae-Pen S 71263 (MHB)

Row | Compound | MIC (VRSA; VRSA 106) | Avg ΣFIC (range) (E. faecalis; E. faecalis 70468) | Avg ΣFIC (range) (E. faecalis; E. faecalis 78145) | Avg ΣFIC (range) (S. pneumoniae; [1]) | Avg ΣFIC (range) (S. pneumoniae; [2]) | Avg ΣFIC (range) (S. pneumoniae; [3]) | Avg ΣFIC (range) (S. pneumoniae; [4]) | Avg ΣFIC (range) (S. pneumoniae; [5]) | Avg ΣFIC (range) (S. pneumoniae; [6]) | Avg ΣFIC (range) (VRE; VRE 70769) | Avg ΣFIC (range) (VRE; VRE 77872) | Avg ΣFIC (range) (E. Faecium; E. Faecium 78024) | Avg ΣFIC (range) (E. Faecium; E. Faecium 78352) | Avg ΣFIC (range) (S. agalactiae; S. agalactiae 80870 (MHB)) | Avg ΣFIC (range) (S. agalactiae; S. agalactiae 81262 (MHB)) | MIC (VISA; VISA 92) | MIC (VISA; VISA 92, in µg/mL) | MIC (VISA; VISA 95, in µg/mL) | Avg ΣFIC (range) (S. pyogenes; S. pyogenes 77765 (MHB)) | Avg ΣFIC (range) (S. pyogenes; S. pyogenes 79531 (MHB)) | further results
1 | CO/N=C(\C(=O)N[C@@H]1C(=O)N2C(C(=O)O)=C(CSc3nc(=O)c(=O)[nH]n3C)CS[C@H]12)c1csc(N)n1 [Ceftriaxone] | 1024 and 2048/2048 | 1.1 (1-1.25) | 0.72 (0.53-1.12) | 1.05 (0.75-1.25) | 1.1 (1.0-1.25) | 1.21 (1.03-1.5) | 1.05 (0.75-1.25) | 0.99 (0.62-1.06) | 0.91 (0.62-1.12) | >1* | >1* | >1* | 0.99 (0.62-1.25) | 0.99 (0.53-1.25) | 1.05 (0.75-1.25) | 1024/1024 | 1024 | 512 | 1.19 (0.03-1.5) | 1.19 (1.03-1.5) | MIC (VRSA; VRSA 105): 2048 and 1024/1024; MIC (VRSA; VRSA 106, listed as CEFTRIAXONE): 1024/1024; MIC (VISA; VISA 95, listed as CEFTRIAXONE, in µg/mL): 1024 and 512; MIC (VISA; VISA 96): 256 and 128/128 and 256/256
2 | CN(C)c1cc(NC(=O)CNC(C)(C)C)c(O)c2c1C[C@H]1C[C@H]3[C@H](N(C)C)C(O)=C(C(N)=O)C(=O)[C@@]3(O)C(O)=C1C2=O [Tigecycline, tigecycline] |  | 0.82 (0.5-1.06) | 0.9 (0.5-1.12) | 0.68 (0.53-1.03) | 1.0 (0.56-1.12) | 0.91 (0.62-1.12) | 0.98 (0.75-1.12) | 0.91 (0.62-1.12) | 0.92 (0.56-1.25) | 1.2 (1.03-1.05) | 1.39 (1.03-2.06) | 1.19 (1.03-1.5) | 0.99 (0.75-1.12) | 1.10 (1.0-1.25) | 1.05 (0.75-1.25) |  |  |  | 1.1 (1.0-1.25) | 1.1 (1.0-1.25) | 
3 | LKQKIKHVVKLKVVVKLRSQLVKRKQN (listed as Mus sp.) [PEP35] | 128 and 128/128/128 |  |  |  |  |  |  |  |  |  |  |  |  |  |  | 1024 and 2048/2048/2048 |  |  |  |  | MIC (VRSA; VRSA 105, in µg/mL): 128 and 64; MIC (VISA; VISA 96): 512 and 512/512/512; MIC (E. coli; E. coli 69716, in µg/mL): 128; MIC (E. coli; E. coli 70752, in µg/mL): 128; MIC (E. coli; E. coli control): 64 µg/mL; PEP35 (MIC) (E. coli; E. coli, peptide alone): 64 µg/mL
4 | KKKKKLQLQLNLIKKKVQVSVVVVRRH (Reordered human peptide sequence) [Scrambled PEP35] |  |  |  |  |  |  |  |  |  |  |  |  |  |  |  |  | 2048 | 2048 |  |  | MIC (VRSA; VRSA 105, in µg/mL): 64; MIC (VRSA; VRSA 106, in µg/mL): 128; MIC (VISA; VISA 96, in µg/mL): 1024; MIC (E. coli; E. coli 69716, in µg/mL): 8; MIC (E. coli; E. coli 70752, in µg/mL): 8; activity (in words) (E. coli; vs E. coli): active
5 | CCCCCCCCCC(=O)N[C@@H](Cc1c[nH]c2ccccc12)C(=O)N[C@H](CC(N)=O)C(=O)N[C@@H](CC(=O)O)C(=O)N[C@@H]1C(=O)NCC(=O)N[C@@H](CCCN)C(=O)N[C@@H](CC(=O)O)C(=O)N[C@H](C)C(=O)N[C@@H](CC(=O)O)C(=O)NCC(=O)N[C@H](CO)C(=O)N[C@@H]([C@H](C)CC(=O)O)C(=O)N[C@@H](CC(=O)c2ccccc2N)C(=O)O[C@@H]1C [Daptomycin, daptomycin] |  | 1.5 (1-2.25) | 1.39 (1.03-2.25) | 0.99 (0.62-1.25) | 1.19 (1.03-1.5) | 1.09 (0.56-1.5) | 1.19 (1.03-1.5) | 1.21 (1.03-1.5) | 1.39 (1.03-2.5) | 0.82 (0.28-1.25) | 1.34 (1.03-1.5) | 1.19 (1.03-1.5) | 1.10 (0.75-1.5) | 0.83 (0.53-1.12) | 1.69 (1.06-2.5) |  |  |  | 1.19 (1.03-1.5) | 1.19 (1.03-1.5) | 
6 | CC(=O)NC[C@H]1CN(c2ccc(N3CCOCC3)c(F)c2)C(=O)O1 [Linezolid, linezolid] |  | 0.99 (0.62-1.25) | 0.88 (0.62-1.06) | 0.86 (0.56-1.12) | 1.05 (0.75-1.25) | 0.74 (0.53-1.12) | 0.92 (0.75-1.12) | 0.63 (0.5-1.06) | 0.92 (0.62-1.12) | 1.09 (1-1.25) | 1.19 (1.03-1.5) | 1.1 (1-1.25) | 0.80 (0.5-1.06) | 1.1 (1.0-1.25) | 0.91 (0.53-1.25) |  |  |  | 1.05 (0.75-1.25) | 1.19 (1.03-1.5) | 
